The values below come from US20030119895A1, “Methods using a combination of a 3-heteroaryl-2-indolinone and a cyclooxygenase-2 inhibitor for the treatment of neoplasia” (Pharmacia Corporation, priority 1998, published 2003).

For assay [1], the system named is fibroblast growth factor-induced corneal angiogenesis. As to conditions: rats; cited from earlier work.
Assay [2] addresses T1, PDGFR (Homo sapiens, UniProt P09619).
T1 construct: other: ELISA Assay Results; U1242 cells
Kind of assay: PDGF-R ELISA (U1242 cells). The settings on record: ELISA Assay Results. It counts as cell-based. In general terms: An ELISA detects its analyte on a solid surface through an enzyme-linked reagent.
Procedure: All cell culture media, glutamine, and fetal bovine serum were purchased from Gibco Life Technologies (Grand Island, N.Y.) unless otherwise specified. […] All cell lines were routinely subcultured twice a week and were negative for mycoplasma as determined by the Mycotect method (Gibco).
For ELISA assays, cells (U1242, obtained from Joseph Schlessinger, NYU) were grown to 80-90% confluency in growth medium (MEM with 10% FBS, NEAA, 1 mM NaPyr and 2 mM GLN) and seeded in 96-well tissue culture plates in 0.5% serum at 25,000 to 30,000 cells per well. […] Lysates were incubated with shaking for 1 hour at room temperature. The plates were washed with TBST four times and then incubated with polyclonal anti-phosphotyrosine antibody at room temperature for 30 minutes. Excess anti-phosphotyrosine antibody was removed by rinsing the plate with TBST four times. Goat anti-rabbit IgG antibody was added to the ELISA plate for 30 min at room temperature followed by rinsing with TBST four more times. […] Absorbance at 410 nm with a reference wavelength of 630 nm was recorded about 15 to 30 min after ABTS addition.

Assay [3] deals with HUV-EC-C cells (human umbilical vein endothelial cells). Kind of assay: HUV-EC-C Assay, VEGF-stimulated [3H] thymidine incorporation. It counts as cell-based. As to conditions: Mitogenesis in Endothelial Cells.
The test system is the same in assay [4]. Kind of assay: HUV-EC-C Assay, a-FGF (ECGF)-stimulated [3H] thymidine incorporation. As to conditions: Homo sapiens, HUVEC, Mitogenesis in Endothelial Cells. In kind it is cell-based. On the procedure: The following protocol may also be used to measure the composition's activity:
1. […] After cells have detached from the flask, add an equal volume of assay medium and transfer to a 50 ml sterile centrifuge tube (Fisher Scientific; catalogue no. 05-539-6).
2. Wash the cells with about 35 ml assay medium in the 50 ml sterile centrifuge, tube by adding the assay medium, centrifuge for 10 minutes at approximately 200× g, aspirate the supernatant, and resuspend with 35 ml D-PBS. Repeat the wash two more times with D-PBS, resuspend the cells in about 1 ml assay medium/15 cm^2 of tissue culture flask. Assay medium consists of F12K medium (Gibco BRL; catalogue no. 21127-014)+0.5% heat-inactivated fetal bovine serum. Count the cells with a Coulter Counter.RTM.v Coulter Electronics, Inc.) and add assay medium to the cells to obtain a concentration of 0.8-1.0×10^5 cells/ml.
3. Add cells to 96-well flat-bottom plates at 100 μl/well or 0.8-1.0×10^4 cells/well; incubate about 24 h at 37° C., 5% CO2.
1. Make up two-fold drug titrations in separate 96-well plates, generally 50 μM on down to 0 μM. Use the same assay medium as mentioned in day 0, step 2 above. Titrations are made by adding […] of drug at 200 μM (4× the final well concentration) to the top well of a particular plate column. Since the stock drug concentration is usually 20 mM in DMSO, the 200 μM drug concentration contains 2% DMSO. Therefore, diluent made up to 2% DMSO in assay medium (F12K+0.5% fetal bovine serum) is used as diluent for the drug titrations in order to dilute the drug but keep the DMSO concentration constant. Add this diluent to the remaining wells in the column at 60 μl/well. Take 60 μl from the 120 μl of 200 μM drug dilution in the top well of the column and mix with the 60 μl in the second well of the column. Take 60 μl from this well and mix with the 60 μl in the third well of the column, and so on until two-fold titrations are completed. When the next-to-the-last well is mixed, take 60 μl of the 120 μl in this well and discard it. Leave the last well with 60 μl of DMSO/media diluent as a non-drug-containing control. Make 9 columns of titrated drug, enough for triplicate wells each for 1) VEGF (obtained from Pepro Tech Inc., catalogue no. 100-200, 2) endothelial cell growth factor (ECGF) (also known as acidic fibroblast growth factor, or aFGF) (obtained from Boehringer Mannheim Biochemica, catalogue no. 1439 600), and assay media control. ECGF comes as a preparation with sodium heparin.
2. Transfer 50 μl/well of the drug dilutions to the 96-well assay plates containing the 0.8-1.0×10^4 cells/100 μl/well of the HUV-EC-C cells from day 0 and […] incubate ~2 h at 37° C., 5% CO2.
3. In triplicate, add 50 μl/well of 80 ng/ml VEGF, 20 ng/ml ECGF, or media control to each drug condition. As with the drugs, the growth factor concentrations are 4× the desired final concentration. Use the assay media from day 0 step 2 to make the concentrations of growth factors. Incubate approximately 24 hours at 37° C., 5% CO2. Each well will have 50 μl drug dilution, 50 μl growth factor or media, and 100 ul cells,=200 ul/well total. Thus the 4× concentrations of drugs and growth factors become 1× once everything has been added to the wells.
1. Add ^3H-thymidine (Amersham; catalogue no. TRK-686) at 1 μCi/well (10 μl/well of 100 μCi/ml solution made up in RPMI media+10% heat-inactivated fetal bovine serum) and incubate about 24 h at 37° C., 5% CO2.
Note: ^3H-thymidine is made up in RPMI media because all of the other applications for which we use the ^3H-thymidine involve experiments done in RPMI. The media difference at this step is probably not significant. RPMI was obtained from Gibco BRL, catalogue no. 11875-051.
1. Freeze plates overnight at −20° C.
1. Thaw plates and harvest with a 96-well plate harvester (Tomtec Harvester 96.RTM.) onto filter mats (Wallac; catalogue no. 1205-401); read counts on a Wallac Betaplate™ liquid scintillation counter.
On the technique in general: Dividing cells build labelled thymidine or BrdU into new DNA.

Assay [5] has as its target T2, HER2 kinase (Homo sapiens, UniProt P04626).
T2 construct: fused on or other part: The EGFR extracellular domain serves for EGF stimulation and for capture by mAb 05-101; The HER2 part carries the kinase domain; P00533 (Epidermal growth factor receptor)
The experiment in a line: HER-2 ELISA Assay 1: EGF Receptor-HER2 Chimeric Receptor Assay In Whole Cells. It counts as cell-based. The settings on record: ELISA Assay Results.
Procedure: Assay 1 EGF Receptor-HER2 Chimeric Receptor Assay In Whole Cells. HER2 kinase activity in hole EGFR-NIH3T3 cells was measured as described below:
Materials and Reagents. The following materials and reagents were used to conduct the assay:
Anti-phosphotyrosine antibody (anti-Ptyr) (polyclonal)(see, Fendley, et al., supra).
Detection antibody: Goat anti-rabbit IgG horse radish peroxidase conjugate, TAGO, Inc., Burlingame, Calif.
Procedure. The following protocol was used:
Coated plates are good for up to 10 days when stored at 4° C.
On day of use, remove coating buffer and replace with 100 μl blocking buffer (5% Carnation Instant Non-Fat Dry Milk in PBS). Incubate the plate, shaking, at room temperature (about 23° C. to 25° C.) for 30 minutes. Just prior to use, remove blocking buffer and wash plate 4 times with TBST buffer.
An NIH3T3 cell line overexpressing a chimeric receptor containing the EGFR extracellular domain and extracellular HER2 kinase domain can be used for this assay.
Choose dishes having 80-90% confluence for the experiment. Trypsinize cells and stop reaction by adding 10% fetal bovine serum. Suspend cells in DMEM medium (10% CS DMEM medium) and centrifuge once at 1500 rpm, at room temperature for 5 minutes.
Resuspend cells in seeding medium (DMEM, 0.5% bovine serum), and count the cells using trypan blue. Viability above 90% is acceptable. Seed cells in DMEM medium (0.5% bovine serum) at a density of 10,000 cells per well, 100 μL per well, in a 96 well microtiter plate. Incubate seeded cells in 5% CO2 at 37° C. for about 40 hours.
Check seeded cells for contamination using an inverted microscope. Dilute drug stock (10 mg/ml in DMSO) 1:10 in DMEM medium, then transfer 51 to a TBST well for a final drug dilution of 1:200 and a final DMSO concentration of 1%. Control wells receive DMSO alone. Incubate in 5% CO2 at 37° C. for two hours.
Prepare EGF ligand: dilute stock EGF in DMEM so that upon transfer of 10 μl dilute EGF (1:12 dilution), 100 nM final concentration is attained.
Prepare fresh HNTG* sufficient for 100 μl per well; and place on ice.
After 120 minutes incubation with drug, add prepared SGF ligand to cells, 10 μl per well, to a final concentration of 100 nM. Control wells receive DMEM alone. Incubate, shaking, at room temperature, for 5 minutes.
Remove drug, EGF, and DMEM. Wash cells twice with PBS. Transfer HNTG* to cells, 100 μl per well. Place on ice for 5 minutes. Meanwhile, remove blocking buffer from other ELISA plate and wash with TBST as described above.
With a pipette tip securely fitted to a micropipettor, scrape cells from plate and homogenize cell material by repeatedly aspirating and dispensing the HNTG* lysis buffer. Transfer lysate to a coated, blocked, and washed ELISA plate. Incubate shaking at room temperature for one hour.
Remove lysate and wash 4 times with TBST. Transfer freshly diluted anti-Ptyr antibody to ELISA plate at 100 μl per well. Incubate shaking at room temperature for 30 minutes in the presence of the anti-Ptyr antiserum (1:3000 dilution in TBST).
Remove the anti-Ptyr antibody and wash 4 times with TBST. Transfer the freshly diluted TAGO anti-rabbit IgG antibody to the ELISA plate at 100 μl per well., Incubate shaking at room temperature for 30 minutes (anti-rabbit IgG antibody: 1:3000 dilution in TBST).
Remove TAGO detection antibody and wash 4 times with TBST. Transfer freshly prepared ABTS/H2O2 solution to ELISA plate, 100 μl per well. Incubate shaking at room temperature for 20 minutes. (ABTS/H2O2 solution: 1.0 μl 30% H2O2 in 10 ml ABTS stock).
Stop reaction by adding 50 μl 5N H2 SO4 (optional), and determine O.D. at 410 nm.
The maximal phosphotyrosine signal is determined by subtracting the value of the negative controls from the positive controls. The percent inhibition of phosphotyrosine content for extract-containing wells is then calculated, after subtraction of the negative controls.

Assay [6] deals with T3, FLK-1 receptor (Mus musculus, UniProt P35918).
T3 construct: expressed in transfected cells; host or cells: NIH3T3 C7#3 (FLK-1/NIH3T3)
T3 sequence (P35918 20-1345): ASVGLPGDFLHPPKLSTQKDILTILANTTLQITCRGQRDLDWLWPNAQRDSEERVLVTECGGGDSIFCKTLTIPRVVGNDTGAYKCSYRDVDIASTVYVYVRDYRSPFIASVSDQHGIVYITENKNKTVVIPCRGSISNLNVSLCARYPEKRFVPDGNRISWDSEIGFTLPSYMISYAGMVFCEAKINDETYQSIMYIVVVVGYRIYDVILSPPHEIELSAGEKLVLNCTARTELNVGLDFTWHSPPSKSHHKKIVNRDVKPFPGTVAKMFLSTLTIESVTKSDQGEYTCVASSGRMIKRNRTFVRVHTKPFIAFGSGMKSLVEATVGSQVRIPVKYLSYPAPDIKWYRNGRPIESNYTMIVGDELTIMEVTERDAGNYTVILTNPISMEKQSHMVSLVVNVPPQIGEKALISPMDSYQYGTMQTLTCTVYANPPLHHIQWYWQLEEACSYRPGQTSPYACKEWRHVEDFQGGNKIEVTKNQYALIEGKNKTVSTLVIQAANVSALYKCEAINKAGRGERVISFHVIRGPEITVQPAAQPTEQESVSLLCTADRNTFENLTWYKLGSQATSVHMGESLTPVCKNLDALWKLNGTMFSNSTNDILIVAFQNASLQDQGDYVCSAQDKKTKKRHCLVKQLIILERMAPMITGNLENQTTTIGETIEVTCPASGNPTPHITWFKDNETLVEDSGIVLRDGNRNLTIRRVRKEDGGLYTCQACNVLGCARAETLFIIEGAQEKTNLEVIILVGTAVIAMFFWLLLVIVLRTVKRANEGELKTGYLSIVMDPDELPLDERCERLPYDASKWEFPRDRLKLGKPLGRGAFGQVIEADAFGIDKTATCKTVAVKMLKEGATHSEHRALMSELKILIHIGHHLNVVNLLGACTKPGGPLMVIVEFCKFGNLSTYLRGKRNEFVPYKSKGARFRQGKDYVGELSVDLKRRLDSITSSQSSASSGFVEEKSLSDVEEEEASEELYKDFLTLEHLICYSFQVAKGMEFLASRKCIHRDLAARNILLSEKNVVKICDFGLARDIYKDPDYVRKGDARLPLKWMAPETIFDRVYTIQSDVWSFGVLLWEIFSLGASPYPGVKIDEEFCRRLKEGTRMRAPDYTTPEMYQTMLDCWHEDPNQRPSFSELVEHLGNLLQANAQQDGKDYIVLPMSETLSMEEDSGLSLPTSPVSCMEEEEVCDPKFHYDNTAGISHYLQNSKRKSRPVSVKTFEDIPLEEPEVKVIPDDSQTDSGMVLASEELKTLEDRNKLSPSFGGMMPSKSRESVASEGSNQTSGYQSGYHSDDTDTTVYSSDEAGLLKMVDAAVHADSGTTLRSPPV
The experiment in a line: FLK-1 ELISA (kinase activity of the FLK-1 receptor in FLK-1/NIH3T3 cells). As to conditions: ELISA Assay Results, VEGF stimulation. It counts as cell-based.
Procedure: An ELISA assay was conducted to measure the kinase activity of the FLK-1 receptor and more specifically, the inhibition or activation of protein tyrosine kinase activity on the FLK-1 receptor. Specifically, the following assay was conducted to measure kinase activity of the FLK-1 receptor in FLK-1/NIH3T3 cells.
The following reagents and supplies were used:
PBS (Gibco Catalog No. 450-1300EB);
Ethanolamine stock (10% ethanolamine (pH 7.0), stored at 4° C.);
HNTG buffer (20 mM HEPES buffer (pH 7.5),150 mM NaCl, 0.2% Triton X-100, and 10% glycerol);
EDTA (0.5M (pH 7.0) as a 100× stock);
Sodium ortho vanadate (0.5M as a 100× stock);
Sodium pyro phosphate (0.2M as a 100× stock);
NIH3T3 C7#3 Cells (FLK-1 expressing cells);
VEGF, PeproTech, Inc. (catalog no. 100-20)(kept as 1 μg/100 til stock in Milli-Q dH2O and stored at −20° C. Affinity purified anti-FLK-1 antiserum, Enzymology Lab, Sugen, Inc.;
H2 02 (30% solution) (Fisher catalog no. H325);
Protocol. The following protocol was used for conducting the assay:
Coat Corning 96-well elisa plates with 1.0 μg per well Cappel Anti-rabbit IgG antibody in 0.1M Na2 CO3 pH 9.6. Bring final volume to 150 μl per well. Coat plates overnight at 4° C. Plates can be kept up to two weeks when stored at 4° C.
Grow cells in Growth media(DMEM, supplemental with 2.0 mM L-Glutamine, 10% FBS) in suitable culture dishes until confluent at 37° C., 5% CO2. […]

The test system of assay [7] is 3T3/PDGF-βR/PDGF-BB(T) (NIH 3T3 cells expressing PDGFβ-receptor and PDGF-BB). Kind of assay: SRB Assay 3: 3T3/PDGF-βR/PDGF-BB(T) Cell Growth SRB Assay. It counts as cell-based. The settings on record: Mus musculus, NIH3T3, SRB Readout, read-out: 3T3/PDGFR + PDGF (T) IC50. Here is the method: Assay 3: 3T3/PDGF-βR/PDGF-BB(T) Cell Growth SRB Assay
Cell line and growth medium:
3T3/PDGF-βR/PDGF-BB(T) (NIH 3T3 clone 7 cells expressing PDGFβ-receptor and PDGF-BB, from tumors resected from athymic mice) 2% calf serum/DMEM+2 mM glutamine
This part of assay is carried out in a laminar flow hood.
1. Trypsinize cells as usual. Transfer 200 μl of cell suspension to 10 ml of isotone. Count cells on the Coulter Counter.
2. Dilute cells in growth medium to 60,000 cells/ml. Transfer 100 μl of cells to each well in a 96-well flat bottom plate to give 6000 cells/well.
3. Allow half of plate (4 rows) for each compound and quadruplicate wells for each compound concentration, a set of 4 wells for medium control and 4 wells for DMSO control.
4. Gently shake plates to allow for uniform attachment of the cells to the plate.
5. Incubate the plates at 37° C. in a 10% CO2 incubator.
Day 1: Addition of Compound: same as for Assay 1.
Day 5: Development of Assay: same as for Assay 1.
3T3/E/H+TGF-α(T): NIH 3T3 cells expressing EGFR/HER2 chimera and TGF-α, tumor-derived 3T3/EGFR+TGF-α(T): NIH 3T3 cells expressing EGFR and TGF-α, tumor-derived 3T3/PDGFR+PDGF(T): NIH 3T3 cells expressing PDGF-βR and PDGF-ββ, tumor-derived SMC: human smooth muscle cells from Clonetics

Assay [8] deals with EpH4-VEGF. The experiment in a line: Xenograft Assay 2: FLK-1/Xenograft Model, subcutaneous xenograft (In Vivo Data, EpH4-VEGF). Also noted: species or system mice. Here is the method:
Assay 2: FLK-1/Xenograft Model
The ability of the compounds of the present invention to inhibit ovarian, melanoma, prostate, lung and mammary tumor cell lines established as SC xenografts was examined. These studies were conducted using doses ranging from 1 to 75 mg/kg/day.
Materials And Methods. The tumor cells were implanted subcutaneously into the indicated strains of mice. Treatment was initiated on day 1 post implantation unless otherwise indicated (e.g. treatment of the SCID mouse related to the A375 melanoma cell line began on Day 9). Eight (8) to sixteen (16) mice comprised each test group.
Animals. Female athymic mice (BALB/c, nu/nu), BALB/c mice, Wistar rats and Fisher 344 rats were obtained from Simonsen Laboratories (Gilroy, Calif.). Female A/I mice were obtained from Jackson Laboratory (Bar Harbor, Me.). DA rats were obtained from B&K Universal, Inc. (Fremont, Calif.). Athymic R/Nu rats, DBA/2N mice, and BALB/c mice were obtained from Harlan Sprague Dawley (Indianapolis, Ind.). Female C57BU6 mice were obtained from Taconic (Germantown, N.Y.). All animals were maintained under clean-room conditions in Micro-isolator cages with Alpha-dri bedding. They received sterile rodent chow and water ad libitum.
All procedures were conducted in accordance with the NIH Guide for the Care and Use Of Laboratory Animals.
Subcutaneous Xenograft Model. Cell lines were grown in appropriate medium as described. Cells were harvested at or near confluency with 0.05% Trypsin-EDTA and pelleted at 450×g for 10 min. Pellets were resuspended in sterile PBS or media (without FBS) to a suitable concentration indicated in the Figure legends and the cells were implanted into the hindflank of mice. Tumor growth-was measured over 3 to 6 weeks using venier calipers and tumor volumes were calculated as a product of length x width x height unless otherwise indicated. P values were calculated using the Students' t-test.
Different concentrations of a compound in 50-100 μl excipient (dimethylsulfoxide, PBTE, PBTE6C:D5W, or PBTE:D5W) were delivered by IP injection.
Results for various compounds obtained from the above-described in vivo assays are set forth at Table 5, below: […]

The subject of assay [9] is 3T3/E/H+TGF-a(T) (NIH 3T3 cells expressing EGFR/HER2 chimera and TGF-a). Kind of assay: SRB Assay 1: 3T3/E/H+TGF-a(T) Cell Growth SRB Assay. It counts as cell-based. As to conditions: Mus musculus, NIH3T3, SRB Readout.
Procedure: Sulforhodamine B (SRB) Growth Assays
The assays are carried out as follows:
0.4% SRB in 1% acetic acid
compound in DMSO (100 mM or less stock solution)
Cell Line and Growth Medium:
Trypsinize cells as usual. Transfer 100 μl of cell suspension to 10 ml of isotone. Count cells with the Coulter Counter.
Gently shake plates to allow for uniform attachment of the cells.
In 96 well-round bottom plate, add 125 μl of growth medium to columns 3-11.
At this dilution, the concentration of DMSO is 0.4% for a 2× solution or 0.2% for 1× solution on the cells.
Transfer the 2× starting compound solution to quadruplicate wells in column 12 of the 96-well round bottom plate. […] Transfer 100 μl of compound dilutions onto 100 μl medium on cells in corresponding wells of 96-well flat bottom plate. Total volume per well should be 200 μl.
For vehicle control, prepare a 2× solution of DMSO at 0.4% DMSO in growth medium. […]
Read plates on Dynatech ELISA Plate Reader at 570 nm with reference at 630 nm.

Values joined by “and” are separate entries in the source; they are usually repeats but may differ in a detail not shown here. Identical values can stand only once.

T2 sequence (P04626 720-987 limits assumed): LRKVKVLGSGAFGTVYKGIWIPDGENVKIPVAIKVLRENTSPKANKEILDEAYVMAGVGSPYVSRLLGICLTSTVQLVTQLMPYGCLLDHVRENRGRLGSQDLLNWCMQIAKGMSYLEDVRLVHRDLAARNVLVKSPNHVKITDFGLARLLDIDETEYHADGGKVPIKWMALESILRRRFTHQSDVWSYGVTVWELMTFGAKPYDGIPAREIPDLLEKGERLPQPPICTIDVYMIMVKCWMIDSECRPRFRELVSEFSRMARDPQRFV
T1 sequence (P09619 33-1106): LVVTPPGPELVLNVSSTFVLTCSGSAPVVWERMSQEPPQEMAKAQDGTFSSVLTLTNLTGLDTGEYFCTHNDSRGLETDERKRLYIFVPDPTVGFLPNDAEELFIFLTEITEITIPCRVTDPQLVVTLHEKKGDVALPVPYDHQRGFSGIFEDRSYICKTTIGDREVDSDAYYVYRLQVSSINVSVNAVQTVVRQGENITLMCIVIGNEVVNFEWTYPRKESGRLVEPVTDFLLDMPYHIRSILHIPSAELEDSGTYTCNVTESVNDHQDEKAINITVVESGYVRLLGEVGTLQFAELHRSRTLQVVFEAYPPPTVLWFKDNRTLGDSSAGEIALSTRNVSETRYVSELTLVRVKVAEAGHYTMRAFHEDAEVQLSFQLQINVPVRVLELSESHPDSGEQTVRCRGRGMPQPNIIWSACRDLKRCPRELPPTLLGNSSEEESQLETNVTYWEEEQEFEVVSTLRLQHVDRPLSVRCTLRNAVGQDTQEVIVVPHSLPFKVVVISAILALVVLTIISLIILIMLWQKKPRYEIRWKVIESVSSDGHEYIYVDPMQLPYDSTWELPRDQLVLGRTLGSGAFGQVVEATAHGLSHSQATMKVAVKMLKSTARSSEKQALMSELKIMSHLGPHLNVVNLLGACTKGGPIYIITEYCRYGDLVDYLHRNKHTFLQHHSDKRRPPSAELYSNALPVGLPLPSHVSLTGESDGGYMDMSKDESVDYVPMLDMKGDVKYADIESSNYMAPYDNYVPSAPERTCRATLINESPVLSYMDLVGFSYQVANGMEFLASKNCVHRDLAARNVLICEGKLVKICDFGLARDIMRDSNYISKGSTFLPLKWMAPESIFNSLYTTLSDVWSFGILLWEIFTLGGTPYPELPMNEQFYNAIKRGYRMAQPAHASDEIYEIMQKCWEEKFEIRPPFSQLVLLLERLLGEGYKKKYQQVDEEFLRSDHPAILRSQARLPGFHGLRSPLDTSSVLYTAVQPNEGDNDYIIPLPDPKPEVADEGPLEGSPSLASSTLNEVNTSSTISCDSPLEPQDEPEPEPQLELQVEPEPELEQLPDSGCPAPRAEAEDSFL

As to `Cc1ccc(-c2cc(C(F)(F)F)nn2-c2ccc(S(N)(=O)=O)cc2)cc1` [Celecoxib, celecoxib], in assay [1], the “inhibition of fibroblast growth factor-induced corneal angiogenesis” value is reported as “potent inhibition”.
`COc1ccc(OC)c(C=C2C(=O)Nc3ccccc32)c1` [SU4793, 3-(2,5-Dimethoxybenzylidenyl)-2-indolinone]: the IC50 is 87.4 µM in assay [2]; 6.6 µM in assay [3] (Homo sapiens, HUVEC); 3.4 µM in assay [4].
As to `CCOc1ccccc1C=C1C(=O)Nc2ccccc21` [SU5204, 3-(2-Ethoxybenzylidenyl]-2-indolinone], the IC50 in assay [3] (Homo sapiens, HUVEC) is 2.3 µM; in [4], 0.7 µM; in assay [5], 51.5 µM.
Take `O=CN1CCN(c2ccc(C=C3C(=O)Nc4ccccc43)cc2)CC1` [SU4984, 3-[4-(4-Formylpiperazin-1-yl)benzylidenyl]-2-indolinone]: the IC50 was 1.6 µM in assay [6]; 0.8 µM in assay [3] (Homo sapiens, HUVEC); 25.8 µM in [4]; 90.2 µM in assay [5]; 22.2 µM in assay [7].
As for `CC(=O)Nc1ccc(C=C2C(=O)Nc3ccccc32)cc1` [SU4944, 3-(4-Acetylaminobenzylidenyl)-2-indolinone], the values for the IC50 in [6] and in assay [3] were 8.5 µM and 14.8 µM, respectively.
Regarding `COc1ccc(C=C2C(=O)Nc3ccccc32)c(Cl)c1` [SU5480, 3-[2-Chloro-4-methoxybenzylidenyl]-2-indolinone], the IC50 was found to be 1.2 µM in assay [3] (Homo sapiens, HUVEC); 3.8 µM in [4]; 30.4 µM in assay [5].
As for `Cc1ccsc1C=C1C(=O)Nc2ccccc21` [SU5427, 3-[(3-Methylthien-2-yl)methylene]-2-indolinone], the IC50 stood at 5.7 µM in [3] (Homo sapiens, HUVEC) and 70.6 µM in assay [5]. Also, the “EpH4-VEGF % inhibition @ mg/kg” value in [8] (@ 50 mg/kg) was 47% @ 50 and 65% @ 50.
Regarding `CN1C(=O)C(=Cc2ccc(N3CCOCC3)cc2)c2ccccc21` [SU4982, 1-Methyl-3-[4-(morpholin-4-yl)benzylidenyl]-2-indolinone], the IC50 in assay [3] (Homo sapiens, HUVEC) amounted to 46.1 µM; in [4], 27.3 µM; in assay [5], 39.4 µM.
The matching figures for `CN1C(=O)C(=Cc2ccc(Br)cc2)c2ccccc21` [SU4956, 3-(4-Bromobenzylidenyl)-1-methyl-2-indolinone]: 8 µM, 13 µM and 22.5 µM.
`CN(C)c1ccc(C=C2C(=O)Nc3ccccc32)cc1` [SU4312, 3-(4-Dimethylaminobenzylidenyl)-2-indolinone]: the IC50 came to 36 µM in [9]; 1.1 µM in assay [3] (Homo sapiens, HUVEC); 154 µM in [4]. The “EpH4-VEGF % inhibition @ mg/kg” value is 63% @ 50 in assay [8] (@ 50 mg/kg); 56% @ 75 and 50% @ 75 in [8] (@ 75 mg/kg).
